According to ChEMBL document CHEMBL1145498, “A systematic interaction map of validated kinase inhibitors with Ser/Thr kinases” (Proc Natl Acad Sci U S A, 2007):

Columns and labels:
[1] = target: Calcium/calmodulin-dependent protein kinase type 1G (Homo sapiens) (UniProt Q96NX5)
[2] = target: Calcium/calmodulin-dependent protein kinase kinase 2 (Homo sapiens, UniProt Q96RR4)
[3] = target: Cyclin-dependent kinase 6 (Homo sapiens) (UniProt Q00534)
[4] = target: Serine/threonine-protein kinase Chk2 (Homo sapiens, UniProt O96017)
[5] = target: Dual specificity protein kinase CLK1 (Homo sapiens) (UniProt P49759)
[6] = target: Dual specificity protein kinase CLK2 (Homo sapiens) (UniProt P49760)
[7] = target: Dual specificity protein kinase CLK3 (Homo sapiens) (UniProt P49761)
[8] = target: Casein kinase I isoform gamma-1 (Homo sapiens) (UniProt Q9HCP0)
[9] = target: Mitogen-activated protein kinase 6 (Homo sapiens) (UniProt Q16659)
[10] = target: Serine/threonine-protein kinase OSR1 (Homo sapiens) (UniProt O95747)
[11] = target: Serine/threonine-protein kinase PAK 5 (Homo sapiens) (UniProt Q9P286)
[12] = target: Cyclin-dependent kinase 16 (Homo sapiens) (UniProt Q00536)
[13] = target: Serine/threonine-protein kinase pim-2 (Homo sapiens, UniProt Q9P1W9)
[14] = target: Ribosomal protein S6 kinase alpha-3 (Homo sapiens) (UniProt P51812)
[15] = target: Ribosomal protein S6 kinase alpha-3 (Homo sapiens) (UniProt P51812); remark: listed apart in the source
[16] = target: STE20-like serine/threonine-protein kinase (Homo sapiens) (UniProt Q9H2G2)
[17] = target: Serine/threonine-protein kinase 16 (Homo sapiens) (UniProt O75716)
[18] = target: Serine/threonine-protein kinase 38 (Homo sapiens) (UniProt Q15208)
[19] = target: Serine/threonine-protein kinase 26 (Homo sapiens) (UniProt Q9P289)
[20] = target: T1, Serine/threonine-protein kinase 4 (Homo sapiens) (UniProt Q13043)
T1 sequence (whole entry): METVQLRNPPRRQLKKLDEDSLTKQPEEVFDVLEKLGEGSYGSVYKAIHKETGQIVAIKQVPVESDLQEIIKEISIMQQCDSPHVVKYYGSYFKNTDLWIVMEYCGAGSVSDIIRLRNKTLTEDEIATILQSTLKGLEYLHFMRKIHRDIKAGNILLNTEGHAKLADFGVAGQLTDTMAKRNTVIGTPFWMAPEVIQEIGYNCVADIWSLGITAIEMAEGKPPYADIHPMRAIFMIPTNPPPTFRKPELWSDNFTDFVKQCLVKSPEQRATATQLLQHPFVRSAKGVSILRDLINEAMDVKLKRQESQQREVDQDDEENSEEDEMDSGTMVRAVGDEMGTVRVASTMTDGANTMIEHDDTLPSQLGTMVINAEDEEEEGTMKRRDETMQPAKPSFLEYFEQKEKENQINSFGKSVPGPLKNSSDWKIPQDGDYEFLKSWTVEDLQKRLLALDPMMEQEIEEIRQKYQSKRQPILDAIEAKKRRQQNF

[21] = target: T2, Serine/threonine-protein kinase VRK3 (Homo sapiens) (UniProt Q8IV63)
T2 sequence (whole entry): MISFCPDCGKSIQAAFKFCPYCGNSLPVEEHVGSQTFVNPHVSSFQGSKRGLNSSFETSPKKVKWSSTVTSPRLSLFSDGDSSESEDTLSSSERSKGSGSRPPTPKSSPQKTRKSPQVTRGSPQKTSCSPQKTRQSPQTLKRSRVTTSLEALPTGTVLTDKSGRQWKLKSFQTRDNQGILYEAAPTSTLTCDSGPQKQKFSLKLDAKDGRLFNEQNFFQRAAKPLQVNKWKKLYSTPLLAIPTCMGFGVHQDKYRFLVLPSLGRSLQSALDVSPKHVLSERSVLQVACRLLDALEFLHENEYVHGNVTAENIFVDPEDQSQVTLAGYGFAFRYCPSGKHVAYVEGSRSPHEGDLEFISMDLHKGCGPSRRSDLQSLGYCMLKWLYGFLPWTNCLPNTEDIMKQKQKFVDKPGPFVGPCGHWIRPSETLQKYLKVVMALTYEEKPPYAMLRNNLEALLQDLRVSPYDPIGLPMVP

Sequence of Ribosomal protein S6 kinase alpha-3 (Homo sapiens) (P51812 whole entry): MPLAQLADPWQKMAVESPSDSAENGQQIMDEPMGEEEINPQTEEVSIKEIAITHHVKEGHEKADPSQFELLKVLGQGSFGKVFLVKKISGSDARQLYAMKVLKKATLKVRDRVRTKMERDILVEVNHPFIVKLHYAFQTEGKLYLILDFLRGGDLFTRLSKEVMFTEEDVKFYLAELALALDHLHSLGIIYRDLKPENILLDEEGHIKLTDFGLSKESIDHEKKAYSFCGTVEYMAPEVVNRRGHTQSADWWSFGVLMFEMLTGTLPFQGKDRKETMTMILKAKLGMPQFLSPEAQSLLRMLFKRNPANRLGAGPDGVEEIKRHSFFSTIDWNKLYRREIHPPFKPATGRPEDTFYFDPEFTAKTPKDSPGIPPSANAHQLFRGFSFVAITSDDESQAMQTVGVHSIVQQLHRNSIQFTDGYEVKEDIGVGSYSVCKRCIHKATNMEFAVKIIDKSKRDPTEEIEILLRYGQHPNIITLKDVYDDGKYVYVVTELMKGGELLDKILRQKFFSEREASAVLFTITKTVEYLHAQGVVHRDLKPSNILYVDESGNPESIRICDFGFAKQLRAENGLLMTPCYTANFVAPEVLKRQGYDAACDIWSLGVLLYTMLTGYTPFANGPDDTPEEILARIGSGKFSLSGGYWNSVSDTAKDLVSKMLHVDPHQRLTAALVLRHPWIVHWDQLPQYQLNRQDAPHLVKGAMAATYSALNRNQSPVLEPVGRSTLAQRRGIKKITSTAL
Sequence of Serine/threonine-protein kinase 38 (Homo sapiens) (Q15208 2-465 limits assumed): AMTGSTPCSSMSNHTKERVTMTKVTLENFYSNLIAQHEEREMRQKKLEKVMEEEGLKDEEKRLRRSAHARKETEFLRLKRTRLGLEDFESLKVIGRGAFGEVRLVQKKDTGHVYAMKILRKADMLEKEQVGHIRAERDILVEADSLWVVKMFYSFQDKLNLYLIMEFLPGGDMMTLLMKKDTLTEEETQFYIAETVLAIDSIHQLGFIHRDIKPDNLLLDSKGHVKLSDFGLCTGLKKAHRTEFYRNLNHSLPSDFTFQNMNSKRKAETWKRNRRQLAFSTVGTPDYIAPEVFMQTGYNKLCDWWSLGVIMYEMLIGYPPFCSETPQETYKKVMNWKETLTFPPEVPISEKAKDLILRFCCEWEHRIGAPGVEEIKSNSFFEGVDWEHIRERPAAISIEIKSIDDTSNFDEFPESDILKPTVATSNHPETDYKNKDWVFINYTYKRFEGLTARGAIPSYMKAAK
Sequence of Cyclin-dependent kinase 6 (Homo sapiens) (Q00534 whole entry): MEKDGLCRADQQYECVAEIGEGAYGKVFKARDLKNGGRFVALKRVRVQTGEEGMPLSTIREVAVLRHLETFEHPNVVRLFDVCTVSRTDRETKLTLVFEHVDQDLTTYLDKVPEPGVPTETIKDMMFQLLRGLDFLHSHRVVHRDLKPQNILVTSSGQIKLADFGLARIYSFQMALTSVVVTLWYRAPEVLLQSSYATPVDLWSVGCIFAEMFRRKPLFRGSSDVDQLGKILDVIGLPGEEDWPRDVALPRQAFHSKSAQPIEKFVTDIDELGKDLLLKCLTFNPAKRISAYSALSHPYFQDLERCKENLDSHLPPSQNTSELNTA
Sequence of Dual specificity protein kinase CLK3 (Homo sapiens) (P49761 whole entry, looked up, canonical isoform): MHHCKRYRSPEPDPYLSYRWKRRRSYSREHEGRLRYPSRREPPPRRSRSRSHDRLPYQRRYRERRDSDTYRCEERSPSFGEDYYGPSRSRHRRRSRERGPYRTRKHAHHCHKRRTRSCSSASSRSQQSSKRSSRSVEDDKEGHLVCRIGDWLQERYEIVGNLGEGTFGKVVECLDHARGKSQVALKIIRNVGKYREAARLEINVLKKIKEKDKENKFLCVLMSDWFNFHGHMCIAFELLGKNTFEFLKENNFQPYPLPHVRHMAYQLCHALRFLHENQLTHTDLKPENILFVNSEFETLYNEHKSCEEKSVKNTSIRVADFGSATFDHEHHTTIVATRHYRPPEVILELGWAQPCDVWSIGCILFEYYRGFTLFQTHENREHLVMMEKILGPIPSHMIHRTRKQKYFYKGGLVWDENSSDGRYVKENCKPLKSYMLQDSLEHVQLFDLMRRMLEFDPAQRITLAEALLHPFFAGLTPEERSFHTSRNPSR
Sequence of Cyclin-dependent kinase 16 (Homo sapiens) (Q00536 whole entry): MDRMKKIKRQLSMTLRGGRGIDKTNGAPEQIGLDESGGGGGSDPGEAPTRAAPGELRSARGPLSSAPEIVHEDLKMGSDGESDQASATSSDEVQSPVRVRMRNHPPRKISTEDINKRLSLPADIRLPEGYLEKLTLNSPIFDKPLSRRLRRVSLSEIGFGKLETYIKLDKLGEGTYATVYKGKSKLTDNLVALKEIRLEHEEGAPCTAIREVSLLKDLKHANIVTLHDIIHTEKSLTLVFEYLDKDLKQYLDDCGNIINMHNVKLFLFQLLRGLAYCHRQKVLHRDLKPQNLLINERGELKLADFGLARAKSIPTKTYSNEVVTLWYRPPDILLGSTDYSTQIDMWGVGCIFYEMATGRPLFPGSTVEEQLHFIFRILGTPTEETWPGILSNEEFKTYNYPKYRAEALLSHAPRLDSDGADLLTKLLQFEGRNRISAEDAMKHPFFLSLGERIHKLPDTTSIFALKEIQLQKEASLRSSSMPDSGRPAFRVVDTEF
Sequence of Serine/threonine-protein kinase pim-2 (Q9P1W9 whole entry, looked up): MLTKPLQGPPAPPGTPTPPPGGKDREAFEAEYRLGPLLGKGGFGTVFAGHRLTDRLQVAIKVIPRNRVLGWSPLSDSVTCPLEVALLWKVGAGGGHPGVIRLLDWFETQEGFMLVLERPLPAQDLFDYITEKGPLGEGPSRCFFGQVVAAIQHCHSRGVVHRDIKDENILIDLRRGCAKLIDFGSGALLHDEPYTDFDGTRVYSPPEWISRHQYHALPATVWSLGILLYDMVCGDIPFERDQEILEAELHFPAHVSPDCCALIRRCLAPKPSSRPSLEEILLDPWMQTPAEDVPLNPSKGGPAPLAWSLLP
Sequence of Serine/threonine-protein kinase Chk2 (O96017 whole entry): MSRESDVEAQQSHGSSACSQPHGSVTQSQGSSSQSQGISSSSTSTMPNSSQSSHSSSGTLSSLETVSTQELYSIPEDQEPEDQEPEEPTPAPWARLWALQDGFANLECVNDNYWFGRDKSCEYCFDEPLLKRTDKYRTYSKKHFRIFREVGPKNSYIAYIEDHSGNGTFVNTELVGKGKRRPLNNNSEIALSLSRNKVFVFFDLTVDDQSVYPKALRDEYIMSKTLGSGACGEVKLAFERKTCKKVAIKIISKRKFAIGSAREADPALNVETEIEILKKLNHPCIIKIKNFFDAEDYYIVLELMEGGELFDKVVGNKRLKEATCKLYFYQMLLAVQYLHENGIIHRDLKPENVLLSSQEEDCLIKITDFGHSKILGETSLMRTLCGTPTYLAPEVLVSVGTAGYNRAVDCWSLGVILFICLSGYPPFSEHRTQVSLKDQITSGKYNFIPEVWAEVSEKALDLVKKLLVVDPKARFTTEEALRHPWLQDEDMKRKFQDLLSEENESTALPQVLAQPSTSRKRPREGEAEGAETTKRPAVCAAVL
Sequence of Calcium/calmodulin-dependent protein kinase type 1G (Homo sapiens) (Q96NX5 whole entry): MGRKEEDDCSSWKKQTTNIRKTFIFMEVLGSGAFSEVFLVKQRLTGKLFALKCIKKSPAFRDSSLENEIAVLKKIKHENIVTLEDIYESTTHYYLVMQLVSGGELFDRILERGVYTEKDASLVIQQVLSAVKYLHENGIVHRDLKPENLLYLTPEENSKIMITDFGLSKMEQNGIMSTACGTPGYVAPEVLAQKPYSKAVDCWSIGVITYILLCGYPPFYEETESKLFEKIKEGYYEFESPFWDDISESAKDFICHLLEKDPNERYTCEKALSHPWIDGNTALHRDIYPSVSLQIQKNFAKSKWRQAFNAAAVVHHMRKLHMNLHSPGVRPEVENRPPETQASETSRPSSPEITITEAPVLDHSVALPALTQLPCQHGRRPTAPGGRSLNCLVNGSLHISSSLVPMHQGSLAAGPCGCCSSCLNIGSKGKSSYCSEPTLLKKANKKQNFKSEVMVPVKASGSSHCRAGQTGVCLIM
Sequence of Dual specificity protein kinase CLK1 (Homo sapiens) (P49759 whole entry, looked up): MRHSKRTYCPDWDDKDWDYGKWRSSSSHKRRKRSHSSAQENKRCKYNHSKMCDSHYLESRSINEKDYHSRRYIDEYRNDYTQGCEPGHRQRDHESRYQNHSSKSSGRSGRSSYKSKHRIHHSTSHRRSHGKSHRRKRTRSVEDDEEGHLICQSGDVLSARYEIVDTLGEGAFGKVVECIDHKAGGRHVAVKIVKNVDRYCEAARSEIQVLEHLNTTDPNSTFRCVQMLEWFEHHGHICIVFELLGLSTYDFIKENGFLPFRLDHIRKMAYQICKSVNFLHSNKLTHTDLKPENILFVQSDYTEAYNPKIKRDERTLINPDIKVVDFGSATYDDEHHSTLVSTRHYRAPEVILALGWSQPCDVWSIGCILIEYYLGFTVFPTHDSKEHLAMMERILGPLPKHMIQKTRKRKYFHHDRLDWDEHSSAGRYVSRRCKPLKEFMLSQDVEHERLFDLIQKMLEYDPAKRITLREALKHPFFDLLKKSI
Sequence of Dual specificity protein kinase CLK2 (Homo sapiens) (P49760 whole entry, looked up): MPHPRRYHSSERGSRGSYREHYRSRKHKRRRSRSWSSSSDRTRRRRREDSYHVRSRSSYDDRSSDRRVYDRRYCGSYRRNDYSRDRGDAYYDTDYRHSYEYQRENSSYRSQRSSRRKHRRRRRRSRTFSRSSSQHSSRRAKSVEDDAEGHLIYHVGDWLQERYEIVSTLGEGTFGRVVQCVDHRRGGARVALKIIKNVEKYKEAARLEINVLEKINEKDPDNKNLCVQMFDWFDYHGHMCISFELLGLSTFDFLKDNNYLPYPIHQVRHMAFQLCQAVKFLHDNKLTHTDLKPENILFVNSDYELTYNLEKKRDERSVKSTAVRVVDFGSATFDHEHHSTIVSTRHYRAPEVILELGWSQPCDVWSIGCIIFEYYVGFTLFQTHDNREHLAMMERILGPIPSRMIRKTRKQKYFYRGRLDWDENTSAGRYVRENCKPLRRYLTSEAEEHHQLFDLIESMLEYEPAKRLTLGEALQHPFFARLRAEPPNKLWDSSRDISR

SMILES: COC(=O)[C@]1(O)C[C@@H]2O[C@@]1(C)n1c3ccccc3c3c4c(c5c6ccccc6n2c5c31)C(=O)NC4 (single isomer, unassigned)
- ΔTm [1]: 2.2 °C
- ΔTm [2]: 4.2 °C
- ΔTm [3]: 3.1 °C
- ΔTm [4]: 6 °C
- ΔTm [5]: 10.6 °C
- ΔTm [6]: 4.8 °C
- ΔTm [7]: 0.6 °C
- ΔTm [8]: 0.6 °C
- ΔTm [9]: 0.3 °C
- ΔTm [10]: 1.8 °C
- ΔTm [11]: 5.5 °C
- ΔTm [12]: 0.8 °C
- ΔTm [13]: 3.8 °C
- ΔTm [14]: 7.3 °C
- ΔTm [15]: 5.1 °C
- ΔTm [16]: 6.3 °C
- ΔTm [17]: 2.3 °C
- ΔTm [18]: 3.9 °C
- ΔTm [19]: 1.6 °C
- ΔTm [20]: 9.5 °C
- ΔTm [21]: -0.2 °C
